Reference: patent publication US8029832B2, “Obesity and metabolic syndrome treatment with tanshinone derivatives which increase metabolic activity” (priority 2003, dated 2011)

Columns and labels:
AMPK = AMPK activity of double or triple combinations of tanshinone derivatives in muscle cells; assay type: cell-based; conditions: combinations of the four tanshinone derivatives
Experimental: Using muscle cells, this example was carried out to confirm synergistic effects of AMPK activity with respect to the combination ratio between derivatives, which contained tanshinone I, tanshinone IIA, cryptotanshinone and 15,16-dihydrotanshinone I, as main ingredients. That is, we have attempted to confirm inter-complementary functions between derivatives according to gene expression as shown in Example 5 and thereby synergistic effects by any combination of tanshinone derivatives through AMPK activity.
The respective ingredients of tanshinone I, tanshinone IIA, cryptotanshinone and 15,16-dihydrotanshinone I were doubly or triply combined to prepare different compositions. AMPK activity of the prepared compositions and the AMPK activity of respective ingredients included in those compositions were compared to confirm synergistic effects. In addition, we have attempted to confirm AMPK activity with respect to changes in the combination ratio by varying the ratio between ingredients in the compositions, and to obtain synergistic effects of activity by any combination of tanshinone derivatives.

hepatocytes = conditions: Planta Med. 2002, 68, 1077-1081; cited from earlier work
mitochondria = conditions: Biochemical Pharmacology 65, 51-57, 2003; cited from earlier work
cardiac myocytes [1] = conditions: Biochemical Pharmacology 64, 745-750 (2002); cited from earlier work
cardiac myocytes [2] = conditions: Planta Med. 2002, 68, 1103-1107; cited from earlier work
cardiac fibroblasts = conditions: Planta Med. 2002, 68, 1103-1107; cited from earlier work

15,16-Dihydrotanshinone I
enhancement effect on AMPK activity by combinational use of two or more of these compounds (AMPK): significantly increased

C[C@H]1COC2=C1C(=O)C(=O)c1c2ccc2c1CCCC2(C)C [cryptotanshinone]
enhancement effect on AMPK activity by combinational use of two or more of these compounds (AMPK): significantly increased

Cc1cccc2c3c(ccc12)C(=O)C1=C(OCC1C)C3=O (stereo not drawn) [dihydroisotanshinone I]
effect against menadione-induced cytotoxicity in hepatocytes (hepatocytes): hepatoprotective effects

Cc1c(S(=O)(=O)O)oc2c1C(=O)C(=O)c1c-2ccc2c1CCCC2(C)C [tanshinone IIA sulfonate]
electron-transfer reaction in mitochondria (mitochondria): facilitates an electron-transfer reaction in mitochondria | hypertrophy of cardiac myocytes induced by angiotensin II (cardiac myocytes [1]): attenuates hypertrophy of cardiac myocytes induced by angiotensin II

Cc1coc2c1C(=O)C(=O)c1c-2ccc2c1CCCC2(C)C [tanshinone IIA]
enhancement effect on AMPK activity by combinational use of two or more of these compounds (AMPK): significantly increased

Cc1cccc2c3c(ccc12)C(O)=C(C(C)CO)C(=O)C3=O (stereo not drawn) [tanshinone VI]
hypertrophy of cardiac myocytes (cardiac myocytes [2]): attenuates hypertrophy of cardiac myocytes | synthesis of collagen by cardiac fibroblasts (cardiac fibroblasts): inhibits synthesis of collagen by cardiac fibroblasts

tanshinone I
enhancement effect on AMPK activity by combinational use of two or more of these compounds (AMPK): significantly increased
